In brackets after ≈: the same amount, converted by molar mass.

For this data set the following is noted: buffer; pH 7.4; 200.0 µM.
The term kinetic solubility denotes solubility judged after dilution from a stock solution rather than from solid. With `O=S(=O)(c1ccc(-c2ccon2)s1)N1CCN(c2ccncc2)CC1`, the kinetic solubility came to 37.8 µg/mL (≈ 100 µM). As to `CCOc1cccc(C(=O)Nc2ccc3ccccc3c2)c1`, the solubility (kinetic) was < 0.6 µg/mL.

The compound `Cc1cc(C=O)c(C)n1-c1ccc(NC2CCCC2)c([N+](=O)[O-])c1` gave a kinetic solubility of 5.1 µg/mL (≈ 15.6 µM). Regarding `Cc1ccc(C(=O)Nc2ccc(Nc3ccccc3)cc2)c(Cl)c1`, the kinetic solubility is < 0.4 µg/mL. As for `COC(=O)c1sc(SC)c(S(=O)(=O)C(C)C)c1N`, the kinetic solubility came out at 3.8 µg/mL (≈ 12.3 µM). As to `CCOc1ccccc1NC(=S)NC(=O)CCc1ccccc1`, the kinetic solubility was < 0.4 µg/mL. To `COc1ccc(OCCC(=O)OCC(=O)NCCC2=CCCCC2)cc1` belongs > 54.2 µg/mL. In the case of `Cc1ccc(/C=C2\C(=O)NC(=S)N(c3ccc(F)cc3)C2=O)o1`, the solubility (kinetic) came to 45.9 µg/mL (≈ 139 µM).

Compound `Cc1ccc(C2N(C)C(=O)c3ccccc3N2C)cc1` (stereo not given) registered a solubility (kinetic) of 31.5 µg/mL (≈ 118 µM). The figure for `Cc1csc(NC(=O)c2ccc3c(c2)OCO3)n1` is 31.4 µg/mL (≈ 120 µM); for `Cc1c([N+](=O)[O-])c(C(=O)NC2CCCCC2)nn1C` it is > 39.9 µg/mL.

Take `O=CN1Cc2ccccc2-c2ccccc2C1`: the kinetic solubility is > 33.5 µg/mL.

For the compound `O=C1NC(c2ccc(O)cc2)Nc2ccccc21` (stereo not given), the solubility (kinetic) stood at 29.2 µg/mL (≈ 122 µM).

Regarding `O=C(COC(=O)CNC(=O)C1CCCCC1)Nc1ccccc1`, the kinetic solubility is > 47.8 µg/mL.

Compound `O=C(COc1ccccc1Cl)N1CCc2ccccc2C1` showed a kinetic solubility of 38.7 µg/mL (≈ 128 µM). On to `COc1cc2ccccc2cc1C(=O)NC1CCC(C)CC1` (stereo not given), for which the solubility (kinetic) stood at 5 µg/mL (≈ 16.8 µM). To `COc1ccccc1C(C[N+](=O)[O-])c1c[nH]c2ccccc12` (stereo not given) belongs 9 µg/mL (≈ 30.4 µM). To `CC(C)c1ccccc1NC(=S)NC1CCCCC1` belongs > 41.5 µg/mL. For the compound `COc1ccc(C(=O)NCC(c2ccco2)N2CCOCC2)cc1OC` (stereo not given), the kinetic solubility is > 54.1 µg/mL. The figure for `Cc1nc(N2CCOCC2)sc1C=O` is > 31.8 µg/mL; for `CCn1c(C)c(C)c2cc(C(=O)NCCc3ccco3)ccc21` it is 24.4 µg/mL (≈ 78.6 µM). Turning to `Cc1ccc(/C=N/n2c(C)nc3ccccc3c2=O)o1`, the solubility (kinetic) was > 40.1 µg/mL. `O=C(Nc1ccc(Cl)c(S(=O)(=O)N2CCOCC2)c1)c1cc2ccccc2oc1=O` registered a solubility (kinetic) of 2.4 µg/mL (≈ 5.35 µM). The figure for `CC1CN(C(=O)c2ccc([N+](=O)[O-])s2)CC(C)O1` (stereo not given) is > 40.5 µg/mL; for `CC(=O)/C(=C\N(C)C)Sc1ccc(Cl)cc1` it is 17.6 µg/mL (≈ 68.8 µM).

In turn, `CCN1CCN(c2ccc(N=Cc3ccccc3O)cc2)CC1` displayed a kinetic solubility of 40.7 µg/mL (≈ 132 µM). On to `CCOC(=O)CSc1nnc(CNC(=O)c2cccc(C)c2)n1C`, for which the kinetic solubility was > 52.3 µg/mL.

The compound `Br.CN(C)C1=NCC(CSC(=N)N)S1` (stereo not given) registered a solubility (kinetic) of 32.5 µg/mL. The figure for `Cc1ccc(C(=O)NC(C)C2CCCO2)o1` (stereo not given) is > 33.5 µg/mL; for `Nc1ncnc(Nc2c(F)cccc2F)n1` it is > 33.5 µg/mL. The figure for `CCOC(=O)c1c(NC(=O)CN2CCCCC2)sc(C)c1C` is < 0.3 µg/mL; for `CC(=O)N1C(C(=O)O)Cc2c([nH]c3ccccc23)C1(C)C` (stereo not given) it is > 42.9 µg/mL.

`N#Cc1cc2c(=O)n3ccccc3nc2n(-c2ccc(Cl)cc2)c1=O` registered a solubility (kinetic) of 1.4 µg/mL (≈ 4.01 µM). The figure for `CSC1=NC2(C[C@H]2c2ccccc2)C(=O)N1C` (stereo not given in full) is > 36.9 µg/mL.

Consider `CCOc1ccc(NC(=O)c2cc(=O)[nH]c3ccccc23)cc1`, for which the kinetic solubility came out at 1.3 µg/mL (≈ 4.22 µM). The figure for `O=C(NCCCn1ccnc1)C(=O)c1c[nH]c2ccccc12` is > 44.4 µg/mL; for `COc1cc(/C=C/C(=O)OCC(=O)NC2CCCCCCC2)ccc1O` it is 36.2 µg/mL (≈ 100 µM). The figure for `CCc1ccc(NC2=NCCCS2)cc1` is > 33 µg/mL; for `CN(C1CCCCC1)S(=O)(=O)c1ccc(-c2ccccn2)s1` it is 0.5 µg/mL (≈ 1.49 µM). The figure for `Cc1cc(N)c2ccccc2n1` is > 23.7 µg/mL; for `Cc1nn(CC(=O)N2CCN(C(=O)c3ccco3)CC2)c(C)c1[N+](=O)[O-]` it is > 54.2 µg/mL; for `Fc1ccccc1NC(=S)NCCc1ccc(Cl)cc1` it is 39 µg/mL (≈ 126 µM). `Nc1ccc(OCCc2ccccc2)cc1` came in with a kinetic solubility of 28.3 µg/mL (≈ 133 µM). To `CCN1C(=O)N(CC)C2C1N(CO)C(=O)N2CO` (stereo not given) belongs > 38.7 µg/mL. `CCc1c(C)nc(N2CCN(c3ccccc3F)CC2)[nH]c1=O` came in with a solubility (kinetic) of 5.6 µg/mL (≈ 17.7 µM).

For `COc1ccc(C(=O)N2CCN(c3ccc(C(C)=O)cc3)CC2)cc1S(=O)(=O)N1CCCC1`, the kinetic solubility is > 70.7 µg/mL. As for `Cc1nc2ccc([N+](=O)[O-])cc2c(=O)n1Cc1ccc(Cl)cc1`, the solubility (kinetic) is 0.6 µg/mL (≈ 1.82 µM). `CSc1nc2ccccc2c(=O)n1-c1cccnc1`: the solubility (kinetic) is 34.8 µg/mL (≈ 129 µM). To `COC(=O)c1cnn2c1C(=O)N(Cc1cccs1)CC2` belongs > 43.7 µg/mL; to `COCCn1c(SCC(=O)c2ccccc2)nc2c(c1=O)SCC2`, 42.5 µg/mL (≈ 117 µM).

Compound `C/C(=N\O)C(C)(C)Nc1cccc(Br)c1` came in with a solubility (kinetic) of 37 µg/mL (≈ 136 µM).

`CCCSc1ccc2nc(NC(=O)OC)[nH]c2c1` registered a solubility (kinetic) of 1.4 µg/mL (≈ 5.28 µM).

For the compound `CC(C)CN(CC(C)C)C(=O)COc1ccccc1C(N)=O`, the kinetic solubility was > 46 µg/mL. The figure for `Cc1cc(O)cc(=O)n1CCc1ccccc1` is > 34.4 µg/mL; for `COc1cc(/C(C)=N/NC(=O)CSc2nnc(C)s2)ccc1O` it is > 52.9 µg/mL. To `CC(NC(=O)COC(=O)c1ccc[nH]c1=O)c1ccccc1` (stereo not given) belongs > 45 µg/mL. To `O=C(CS(=O)CC(=O)NC12CC3CC(CC(C3)C1)C2)Nc1ccc(F)cc1` (stereo not given) belongs 16.2 µg/mL (≈ 41.3 µM); to `O=C(CSc1nnc(-c2ccccn2)o1)Nc1ccc(F)cc1`, > 49.6 µg/mL. Regarding `CC(C)CNS(=O)(=O)c1ccc(CCC(=O)NC2CCCCC2)cc1`, the kinetic solubility was 10.5 µg/mL (≈ 28.6 µM).

`COC(=O)c1sccc1NC(=S)Nc1ccc(OC)cc1` had a kinetic solubility of 35.3 µg/mL (≈ 109 µM). Against the preceding compound, the solubility kinetic is about 3.4-fold higher. The figure for `C/C=C(\C)C(=O)N1CCC(C(=O)c2ccccc2)CC1` is > 40.7 µg/mL; for `CC(C)C(NC(=O)c1ccccc1F)C(=O)Nc1nccs1` (stereo not given) it is 48.2 µg/mL (≈ 150 µM); for `O=C(COC(=O)CC1CC2CCC1C2)Nc1ccccc1Cl` (stereo not given) it is 12.9 µg/mL (≈ 40.1 µM). To `Cc1ccsc1C(=O)Nc1ccc(OCc2ccccc2)cc1` belongs < 0.7 µg/mL; to `C[N+](C)(C)CC#CCN1CCCC1=O.[I-]`, > 48.3 µg/mL. To `COc1ccc(NC(=O)COc2ccc3c(c2)CCC3)cc1S(N)(=O)=O` belongs 15.9 µg/mL (≈ 42.2 µM); to `CC(C)n1cnc2cc(NC(=O)c3ccco3)ccc21`, > 40.4 µg/mL. The compound `O=C(CN1CCCC1)Nc1ccccc1C(=O)c1ccccc1` yielded a solubility (kinetic) of 44 µg/mL (≈ 143 µM).

`CC(OC(=O)c1ccccn1)C(=O)Nc1nc(-c2ccc(F)c(F)c2)cs1` (stereo not given) yielded a solubility (kinetic) of 7.9 µg/mL (≈ 20.3 µM). In turn, `Cc1ccc(CNC(=O)C2CC(=O)N(C3CCCCCC3)C2)cc1` (stereo not given) came in with a kinetic solubility of 48.8 µg/mL (≈ 149 µM). `COc1cc(NC(=S)Nc2ccc(OC(F)F)cc2)cc(OC)c1` yielded a solubility (kinetic) of 23.9 µg/mL (≈ 67.4 µM). To `O=C(c1ccc(-n2cccc2)cc1)N1CCCCC1` belongs > 38.1 µg/mL; to `O=C(NCCN1CCCCC1)Nc1ccc(Cl)cc1`, > 42.3 µg/mL.

For `CC(C)(CO)Nc1ncnc2onc(-c3ccc(F)cc3)c12`, the solubility (kinetic) was > 45.3 µg/mL. Compound `CNC(=O)COC(=O)c1ccccc1Nc1ccccc1` returned a solubility (kinetic) of 2.6 µg/mL (≈ 9.14 µM). Regarding `CCC(=O)OC1(c2ccccc2)C(C)CN(C)CC1C.Cl` (stereo not given), the solubility (kinetic) is > 46.8 µg/mL. The figure for `Cn1c(NC(=O)c2ccc(F)cc2)nc2ccccc21` is 4.8 µg/mL (≈ 17.8 µM); for `O=C(CSc1ncccn1)N1CCC(Cc2ccccc2)CC1` it is > 49.1 µg/mL. The figure for `CC(=O)Nc1ccc(-c2csc(Nc3ccccn3)n2)cc1` is 0.5 µg/mL (≈ 1.61 µM); for `O=C(O)CN1C(=O)NC2(CCOc3ccccc32)C1=O` (stereo not given) it is > 41.4 µg/mL. `CC(=O)Nc1ccc(C(=O)NCC(=O)OCc2ccccc2F)cc1` registered a kinetic solubility of 7.5 µg/mL (≈ 21.8 µM).

For `COc1ccc(N2C(=O)CS/C2=N\C(=S)Nc2ccccc2)cc1`, the kinetic solubility was found to be 1.4 µg/mL (≈ 3.92 µM). To `O=C(CN1CCOCC1)NNC(=O)c1ccc(Cl)cc1` belongs > 44.7 µg/mL; to `NC(=O)C1CCCN1S(=O)(=O)c1ccc2ccccc2c1` (stereo not given), > 45.7 µg/mL. `Cc1cc(C(=O)NCCC(C)C)c2ccccc2n1` yielded a solubility (kinetic) of 31 µg/mL (≈ 121 µM). Compound `Cc1ccc(NS(=O)(=O)c2ccc(F)cc2)nc1` showed a kinetic solubility of 34.4 µg/mL (≈ 129 µM). `COC(=O)c1cc(S(=O)(=O)Nc2ccc(C)cn2)c[nH]1`: the kinetic solubility amounted to 43.9 µg/mL (≈ 149 µM). To `Cl.OCCNc1nc(N2CCCCC2)nc2ccccc12` belongs > 46.3 µg/mL; to `O=C(O)c1[nH]c2ccccc2c1C=NCc1ccccc1Cl`, 46.3 µg/mL (≈ 148 µM).

Turning to `O=[N+]([O-])c1ccc(NC(=S)N2CCN(c3ccccn3)CC2)cc1`, the kinetic solubility is 1.4 µg/mL (≈ 4.08 µM).

As for `Cc1cc(=O)n(CC(=O)O)c2ccccc12`, the kinetic solubility was > 32.6 µg/mL. With `N#CCN1C(=O)C(=O)N(Cc2cccc(Cl)c2)C1=O`, the kinetic solubility was > 41.7 µg/mL. `CCc1sc(C(=O)NC(C)C2CCCO2)cc1Br` (stereo not given): the solubility (kinetic) turned out to be 49.5 µg/mL (≈ 149 µM). The figure for `Cc1ccc(NC(=S)NCc2ccc(F)cc2)c(C)c1` is 36.2 µg/mL (≈ 126 µM); for `CC(OC(=O)c1ccc(NC(=O)CC#N)cc1)C(=O)NC(c1ccccc1)c1ccccc1` (stereo not given) it is 8.5 µg/mL (≈ 19.3 µM); for `Cc1c(N=Cc2c(O)n(C)c(=O)[nH]c2=O)c(=O)n(-c2ccccc2)n1C` it is > 53.3 µg/mL. The figure for `Cc1ccc(C(=O)NCC(=O)N2CCCN(C)CC2)cc1C` is > 45.5 µg/mL; for `Cc1ccc(OCCC(=O)OC(C)C(=O)NC2CC2)cc1` (stereo not given) it is > 43.7 µg/mL.

Regarding `COC(=O)CNC(=O)COC(=O)c1cc(SC)ccc1Cl`, the kinetic solubility is > 49.8 µg/mL.

`CCN(Cc1ccccc1)C(=O)Cc1c[nH]c2ccccc12` yielded a solubility (kinetic) of 33.9 µg/mL (≈ 116 µM). As to `COc1cc(C=O)ccc1OCC(=O)N1CCCC1`, the solubility (kinetic) is > 39.5 µg/mL. For the compound `CC(C)NC(=O)C(=O)Nc1cc2c3c(c1)CCC(=O)N3CCC2`, the kinetic solubility is > 47.3 µg/mL. Turning to `Cc1cc(N2CCCCC2)nc2c(C)cccc12`, the solubility (kinetic) is < 0.3 µg/mL.

For `Cc1ccc(Sc2ccc(C(=O)N(C)C)cc2[N+](=O)[O-])cc1`, the solubility (kinetic) turned out to be 35 µg/mL (≈ 111 µM). To `O=C(c1c[nH]c2ccccc12)C(Cl)c1ccccc1` (stereo not given) belongs 2.1 µg/mL (≈ 7.79 µM).

These data come from PubChem BioAssay AID1996.
